How the values were obtained:
DPAP1 [1] = target: T1, DPAP1 (Plasmodium falciparum, UniProt Q8IIJ9); assay: biochemical; set-up: species or system P. falciparum parasite lysate; continuous fluorogenic assay, time-dependent inactivation of DPAP1 in diluted parasite lysate, Pro-Arg-AMC 20 uM; details: for kinact: read-out: DPAP1 / k inact ·10^3; for kinact/KI: read-out: DPAP1 / k inact/K i ·10^−3 (M ^−1·s^−1)
T1 sequence (Q8IIJ9 28-209): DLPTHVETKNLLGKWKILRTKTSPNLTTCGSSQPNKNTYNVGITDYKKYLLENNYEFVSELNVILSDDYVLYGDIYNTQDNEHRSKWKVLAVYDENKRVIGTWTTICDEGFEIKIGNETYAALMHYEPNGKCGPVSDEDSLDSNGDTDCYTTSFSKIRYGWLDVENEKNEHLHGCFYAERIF
T1 sequence (Q8IIJ9 370-599): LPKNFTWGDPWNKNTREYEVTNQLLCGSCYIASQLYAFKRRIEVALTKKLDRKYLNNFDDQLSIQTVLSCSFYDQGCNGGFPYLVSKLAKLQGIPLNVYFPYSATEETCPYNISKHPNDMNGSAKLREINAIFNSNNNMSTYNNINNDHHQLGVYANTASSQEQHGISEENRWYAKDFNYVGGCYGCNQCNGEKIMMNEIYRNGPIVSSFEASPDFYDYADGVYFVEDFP
T1 sequence (Q8IIJ9 600-700): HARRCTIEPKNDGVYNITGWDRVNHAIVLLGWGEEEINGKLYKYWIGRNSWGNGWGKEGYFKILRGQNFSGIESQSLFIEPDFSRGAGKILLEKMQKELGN
Protocol: (§1) Inhibition of DPAP1 was directly measured in parasite lysates diluted 100‐fold in assay buffer using the DPAP1‐selective substrate Pro‐Arg‐AMC 42; 0.2 nM of […] was used for these inhibition studies. Note that because DPAP1 inhibition was directly measured in parasite lysates, inhibitors might have been partially inactivated through the action of aminopeptidases present in the lysates during the course of the assay. Therefore, the potency of the inhibitors might have been underestimated. […] The data were analysed according to the irreversible inhibition model shown in Eqn. 1. First, the progress curves (fluorescent units vs. time) were fitted to Eqn. 5, where F is the measured fluorescence at time t, F 0 the initial fluorescence, V 0 the initial turnover rate, and k obs the observed […] rate constant of inhibition measured at each inhibitor concentration 64.

CatC (bovine) = target: T2, CatC (bovine) (Bos taurus, UniProt Q3ZCJ8); assay: biochemical; set-up: continuous fluorogenic assay, time-dependent inactivation of 0.2 nM CatC, Gly-Arg-AMC 15 uM; details: for kinact: read-out: CatC / k inact ·10^3; for kinact/KI: read-out: CatC / k inact/K i ·10^−3 (M ^−1·s^−1)
T2 construct: gene CTSC; native, purified to homogeneity from bovine spleen
T2 sequence (Q3ZCJ8 25-134): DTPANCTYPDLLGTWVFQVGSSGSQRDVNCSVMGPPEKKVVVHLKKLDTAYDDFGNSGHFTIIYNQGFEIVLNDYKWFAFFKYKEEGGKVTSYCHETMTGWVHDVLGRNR
T2 sequence (Q3ZCJ8 231-394): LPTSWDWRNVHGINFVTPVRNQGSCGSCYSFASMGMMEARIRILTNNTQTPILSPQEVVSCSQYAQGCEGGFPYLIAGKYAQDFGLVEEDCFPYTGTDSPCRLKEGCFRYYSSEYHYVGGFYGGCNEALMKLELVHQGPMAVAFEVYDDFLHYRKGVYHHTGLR
T2 sequence (Q3ZCJ8 395-463): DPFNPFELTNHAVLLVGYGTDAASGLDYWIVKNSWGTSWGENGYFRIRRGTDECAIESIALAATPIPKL
Protocol: as §1

DPAP3 [2] = target: T3, DPAP3 (Plasmodium falciparum, UniProt Q8I1Y2); assay: biochemical; set-up: gene PF3D7_0404700; recombinant, baculovirus/SF9 insect cells, purified from culture supernatant by ion exchange, Ni-NTA and size exclusion; active-site titrated; continuous fluorogenic assay, time-dependent inactivation of 0.2 nM recombinant DPAP3, Met-nLeu(o-Bzl)-ACC 2.2 uM; details: for kinact: read-out: DPAP3 / k inact ·10^3; for kinact/KI: read-out: DPAP3 / k inact/K i ·10^−3 (M ^−1·s^−1)
Protocol: The data were analysed according to the irreversible inhibition model shown in Eqn. 1. First, the progress curves (fluorescent units vs. time) were fitted to Eqn. 5, where F is the measured fluorescence at time t, F 0 the initial fluorescence, V 0 the initial turnover rate, and k obs the observed […] rate constant of inhibition measured at each inhibitor concentration 64. […] The inhibition constants are reported in Fig. 3C and Table 2 (See also Fig. S2 for representative fits). Only one inhibitor, containing an amino‐1‐methyl‐benzyl (Amb) group in P2, was not able to inhibit DPAP3 in a time‐dependent manner under our assay conditions (Fig. 3D). This is probably due to the fact that this extended and rigid P2 AA (Fig. 3E) might prevent proper positioning of the [compound left out] group into the active site of DPAP3 to allow covalent modification of the catalytic cysteine. For this compound, a K i value for reversible inhibition was measured.
Target sequence in this assay (Q8I1Y2 entry or part of it): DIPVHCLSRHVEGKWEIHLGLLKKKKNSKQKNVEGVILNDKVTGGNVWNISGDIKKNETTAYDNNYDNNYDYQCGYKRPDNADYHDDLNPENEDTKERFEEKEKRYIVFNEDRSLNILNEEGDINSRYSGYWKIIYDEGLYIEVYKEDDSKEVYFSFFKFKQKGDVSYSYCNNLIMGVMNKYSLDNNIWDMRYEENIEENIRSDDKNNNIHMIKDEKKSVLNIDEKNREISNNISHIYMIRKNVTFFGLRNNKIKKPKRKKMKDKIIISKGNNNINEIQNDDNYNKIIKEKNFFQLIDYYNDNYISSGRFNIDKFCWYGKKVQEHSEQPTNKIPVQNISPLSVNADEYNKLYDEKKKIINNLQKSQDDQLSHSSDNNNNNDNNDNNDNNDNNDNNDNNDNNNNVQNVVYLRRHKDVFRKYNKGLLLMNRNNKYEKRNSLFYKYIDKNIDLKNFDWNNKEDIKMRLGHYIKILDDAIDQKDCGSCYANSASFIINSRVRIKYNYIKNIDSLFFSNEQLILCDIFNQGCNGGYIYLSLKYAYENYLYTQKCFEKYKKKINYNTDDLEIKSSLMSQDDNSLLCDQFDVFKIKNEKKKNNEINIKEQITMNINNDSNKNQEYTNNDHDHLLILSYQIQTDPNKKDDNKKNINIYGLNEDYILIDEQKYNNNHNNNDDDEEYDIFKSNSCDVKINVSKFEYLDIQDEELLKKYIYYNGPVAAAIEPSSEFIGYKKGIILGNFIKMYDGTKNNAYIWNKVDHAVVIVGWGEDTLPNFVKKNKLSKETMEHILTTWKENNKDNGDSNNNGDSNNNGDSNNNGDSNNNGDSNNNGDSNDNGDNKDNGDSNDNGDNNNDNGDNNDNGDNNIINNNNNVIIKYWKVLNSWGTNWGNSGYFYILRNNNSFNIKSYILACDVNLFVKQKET

DPAP1 [3] = target: T4, DPAP1 (Plasmodium falciparum, UniProt Q8IIJ9); assay: cell-based; set-up: species or system P. falciparum mature schizonts in red blood cells; competitive activity-based probe FY01 labelling in intact parasites, in-gel fluorescence densitometry; details: live parasites, 30 min pretreatment
T4 construct: native enzyme in live parasites (mature schizonts)
T4 sequence (Q8IIJ9 1-700): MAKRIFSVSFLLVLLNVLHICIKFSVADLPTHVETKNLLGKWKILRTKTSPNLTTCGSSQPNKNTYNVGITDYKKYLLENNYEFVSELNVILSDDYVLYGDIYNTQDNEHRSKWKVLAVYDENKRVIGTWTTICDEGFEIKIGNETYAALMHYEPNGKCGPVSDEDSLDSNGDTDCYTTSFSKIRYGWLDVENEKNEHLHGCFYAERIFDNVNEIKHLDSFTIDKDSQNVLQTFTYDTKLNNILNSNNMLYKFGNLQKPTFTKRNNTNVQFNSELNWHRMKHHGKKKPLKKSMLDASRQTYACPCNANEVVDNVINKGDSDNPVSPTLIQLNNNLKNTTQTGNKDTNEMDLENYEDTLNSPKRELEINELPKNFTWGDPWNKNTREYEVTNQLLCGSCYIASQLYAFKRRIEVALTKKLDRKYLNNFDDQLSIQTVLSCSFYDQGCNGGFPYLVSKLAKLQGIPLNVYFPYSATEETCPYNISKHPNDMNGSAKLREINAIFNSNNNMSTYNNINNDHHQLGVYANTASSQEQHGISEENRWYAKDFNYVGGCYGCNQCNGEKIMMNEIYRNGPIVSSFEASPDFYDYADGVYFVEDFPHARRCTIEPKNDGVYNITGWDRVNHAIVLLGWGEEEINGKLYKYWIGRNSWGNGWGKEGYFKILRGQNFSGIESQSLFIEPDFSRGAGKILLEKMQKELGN
Protocol: (§2) Live parasites were treated with different concentrations of inhibitor for 30 min, and the residual level of DPAPs and FPs activities were labelled with FY01 and quantified by densitometry (Fig. 6A). […] Compounds with a P2 Trp or Tyr(NO2) are highly specific for DPAP3 in intact parasites. […] Inhibitors need to cross four membranes to reach DPAP3: the RBC, parasitophorous vacuole and parasite plasma membranes, plus the membrane of the apical organelle where DPAP3 resides 21. (The parasitophorous vacuole is a membrane‐bound structure within which the parasite grows and multiplies isolated from the RBC cytosol.) However, crossing of the parasitophorous vacuole membrane is not likely to be a limiting factor to reach DPAP3 since this membrane is generally permeable to small molecules. It is also likely that the apparent increased potency of Trp‐hPG‐VS in live parasites might be due to its accumulation into the DPAP3 acidic organelle via protonation of its free amine. However, we predict that this lysosomotropic effect likely occurs for all DPAP inhibitors presented here. […] Samples were then run in an SDS/PAGE gel and the in‐gel fluorescence measured using a fluorescence scanner. […] (B) The fluorescence intensity of each of the indicated bands was quantified by densitometry using ImageJ, and the fluorescence values normalized to the DMSO control. […]

FP1 = target: T5, FP1 (Plasmodium falciparum, UniProt P25805); assay: cell-based; set-up: species or system P. falciparum mature schizonts in red blood cells; competitive activity-based probe FY01 labelling in intact parasites, in-gel fluorescence densitometry; details: live parasites, 30 min pretreatment
T5 construct: native falcipain 1 in live parasites (mature schizonts)
T5 sequence (P25805 whole entry): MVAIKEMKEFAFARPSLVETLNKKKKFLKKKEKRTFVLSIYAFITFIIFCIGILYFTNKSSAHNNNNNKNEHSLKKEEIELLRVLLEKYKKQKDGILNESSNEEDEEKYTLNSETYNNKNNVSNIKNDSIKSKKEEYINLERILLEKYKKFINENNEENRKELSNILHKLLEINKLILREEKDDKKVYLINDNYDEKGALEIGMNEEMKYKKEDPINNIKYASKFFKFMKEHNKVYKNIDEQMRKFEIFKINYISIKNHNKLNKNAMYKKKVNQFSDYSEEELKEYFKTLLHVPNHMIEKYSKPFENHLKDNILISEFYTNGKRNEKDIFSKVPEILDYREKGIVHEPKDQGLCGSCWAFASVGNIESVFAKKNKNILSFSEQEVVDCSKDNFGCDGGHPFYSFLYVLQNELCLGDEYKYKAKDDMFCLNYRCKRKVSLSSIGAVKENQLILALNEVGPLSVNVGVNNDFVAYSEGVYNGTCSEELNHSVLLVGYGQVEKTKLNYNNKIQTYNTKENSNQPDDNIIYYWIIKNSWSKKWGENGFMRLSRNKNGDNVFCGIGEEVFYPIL
Protocol: as §2

DPAP3 [4] = target: T3, DPAP3; assay: cell-based; set-up: native enzyme in live parasites (mature schizonts); species or system P. falciparum mature schizonts in red blood cells; competitive activity-based probe FY01 labelling in intact parasites, in-gel fluorescence densitometry; details: live parasites, 30 min pretreatment
Protocol: Live parasites were treated with different concentrations of inhibitor for 30 min, and the residual level of DPAPs and FPs activities were labelled with FY01 and quantified by densitometry (Fig. 6A). […] Compounds with a P2 Trp or Tyr(NO2) are highly specific for DPAP3 in intact parasites. […] Inhibitors need to cross four membranes to reach DPAP3: the RBC, parasitophorous vacuole and parasite plasma membranes, plus the membrane of the apical organelle where DPAP3 resides 21. (The parasitophorous vacuole is a membrane‐bound structure within which the parasite grows and multiplies isolated from the RBC cytosol.) However, crossing of the parasitophorous vacuole membrane is not likely to be a limiting factor to reach DPAP3 since this membrane is generally permeable to small molecules. It is also likely that the apparent increased potency of Trp‐hPG‐VS in live parasites might be due to its accumulation into the DPAP3 acidic organelle via protonation of its free amine. However, we predict that this lysosomotropic effect likely occurs for all DPAP inhibitors presented here.  Figure 6 Selective inhibition of DPAP1 or DPAP3 in live parasites. Intact mature schizonts were pretreated for 30 min with increasing concentrations of inhibitor followed by 1 h treatment with FY01. Samples were then run in an SDS/PAGE gel and the in‐gel fluorescence measured using a fluorescence scanner. (A) Representative gel images obtained for each of the inhibitors. Fluorescent bands corresponding to the different cysteine proteases labelled by the probe are indicated with arrowheads (DPAP3, red; FPs, green; DPAP1, blue). (B) The fluorescence intensity of each of the indicated bands was quantified by densitometry using ImageJ, and the fluorescence values normalized to the DMSO control. […] Three technical replicates were performed; dose responses for a representative replicate are shown.
Target sequence in this assay (Q8I1Y2 entry or part of it): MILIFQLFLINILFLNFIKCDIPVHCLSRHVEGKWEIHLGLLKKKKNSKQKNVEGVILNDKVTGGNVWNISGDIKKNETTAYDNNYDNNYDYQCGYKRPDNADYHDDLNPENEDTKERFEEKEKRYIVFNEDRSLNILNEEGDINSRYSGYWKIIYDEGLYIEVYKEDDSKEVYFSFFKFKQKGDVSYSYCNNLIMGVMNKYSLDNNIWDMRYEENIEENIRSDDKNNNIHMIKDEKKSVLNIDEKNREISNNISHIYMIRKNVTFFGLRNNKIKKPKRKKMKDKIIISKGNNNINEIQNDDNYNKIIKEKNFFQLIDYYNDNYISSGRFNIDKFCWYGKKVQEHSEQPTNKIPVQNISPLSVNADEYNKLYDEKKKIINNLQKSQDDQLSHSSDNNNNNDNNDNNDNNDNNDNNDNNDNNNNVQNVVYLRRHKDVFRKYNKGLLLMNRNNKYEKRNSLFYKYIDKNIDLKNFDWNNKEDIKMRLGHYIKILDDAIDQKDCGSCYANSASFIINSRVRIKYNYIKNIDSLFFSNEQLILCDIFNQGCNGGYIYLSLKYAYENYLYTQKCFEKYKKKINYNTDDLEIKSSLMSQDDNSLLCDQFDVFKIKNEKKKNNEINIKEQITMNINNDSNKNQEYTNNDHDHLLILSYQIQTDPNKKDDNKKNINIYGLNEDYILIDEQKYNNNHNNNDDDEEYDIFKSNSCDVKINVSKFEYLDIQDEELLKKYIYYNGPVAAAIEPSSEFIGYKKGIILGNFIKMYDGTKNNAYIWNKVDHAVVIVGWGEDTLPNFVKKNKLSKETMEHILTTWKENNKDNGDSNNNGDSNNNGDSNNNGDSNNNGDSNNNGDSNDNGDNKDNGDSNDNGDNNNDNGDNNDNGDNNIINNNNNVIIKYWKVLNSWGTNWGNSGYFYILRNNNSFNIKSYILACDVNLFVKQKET

SMILES	kinact (DPAP1 [1]) [s⁻¹]	kinact/KI (DPAP1 [1]) [M⁻¹ s⁻¹]	kinact (CatC (bovine)) [s⁻¹]	kinact/KI (CatC (bovine)) [M⁻¹ s⁻¹]	kinact (DPAP3 [2]) [s⁻¹]	kinact/KI (DPAP3 [2]) [M⁻¹ s⁻¹]	IC50 (DPAP1 [3]) [nM]	IC50 (FP1) [nM]	IC50 (DPAP3 [4]) [nM]
N[C@@H](Cc1ccc2ccccc2c1)C(=O)N[C@H](/C=C/S(=O)(=O)c1ccccc1)CCCCOCc1ccccc1 [2Nal‐nLeu(o‐Bzl)‐VS]	0.005 ± 0.0017	190 ± 50	0.0024 ± 0.0006	1370 ± 90	0.006 ± 0.0007	2200 ± 300	–	–	–
N[C@@H](Cc1c[nH]c2ccccc12)C(=O)N[C@H](/C=C/S(=O)(=O)c1ccccc1)CCc1ccccc1 [L‐Trp‐hPhe‐VS]	0.0017 ± 0.0001	3200 ± 300	0.0022 ± 9e-05	131000 ± 15000	0.0033 ± 0.0004	52000 ± 7000	–	–	–
N[C@@H](Cc1ccc2ccccc2c1)C(=O)N[C@H](/C=C/S(=O)(=O)c1ccccc1)CCc1ccccc1 [2Nal‐hPhe‐VS]	0.0067 ± 0.0002	200 ± 5	0.0037 ± 0.0002	900 ± 100	0.00259 ± 7e-05	10200 ± 500	–	–	–
O=C(N[C@H](/C=C/S(=O)(=O)c1ccccc1)CCc1ccccc1)[C@@H]1CCCCN1 [hPro‐hPhe‐VS]	0.0048 ± 0.0006	1.23e+06 ± 400000	0.00167 ± 8e-05	76000 ± 800	0.0021 ± 0.0001	69000 ± 13000	80 ± 7	350 ± 80	160 ± 50
O=C(N[C@H](C=CS(=O)(=O)c1ccccc1)CCc1ccccc1)[C@@H]1CCCN1 [Pro‐hPhe‐VS]	0.0021 ± 0.0002	470000 ± 35000	0.00145 ± 7e-05	42000 ± 5000	0.0035 ± 0.0002	4100 ± 300	–	–	–
N[C@@H](Cc1ccc(O)c([N+](=O)[O-])c1)C(=O)N[C@H](C=CS(=O)(=O)c1ccccc1)CCc1ccccc1 [Tyr(NO2)‐hPhe‐VS]	0.0038 ± 0.001	150 ± 50	0.0032 ± 0.0006	54 ± 8	0.00226 ± 5e-05	950000 ± 74000	–	–	–
N[C@H](Cc1c[nH]c2ccccc12)C(=O)N[C@H](/C=C/S(=O)(=O)c1ccccc1)CCCCOCc1ccccc1 [D‐Trp‐nLeu(o‐Bzl)‐VS]	0.0055 ± 0.0007	44 ± 2	0.00197 ± 6e-05	1700 ± 100	0.0036 ± 0.0002	470 ± 10	–	–	2700 ± 1600
